The values below come from PubChem BioAssay AID256 (DTP/NCI, 2004).

Values joined by “and” are separate entries in the source; they are usually repeats but may differ in a detail not shown here. Equal values may be shown once. Inconclusive results and toxic doses are left out.

This assay has as its system CD2F1 mice, L1210 leukemia ip, survival T/C. The experiment in a line: NCI In Vivo Anticancer Drug Screen. Data for tumor model L1210 Leukemia (intraperitoneal) in CD2F1 (CDF1) mice. The note with it: higher = longer survival. In short, it runs like this:
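In this screen, transplantable tumors were grown in mice given either the compound or its vehicle. Results were expressed as the treated measurement relative to the control measurement.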

Setting [1] is: endpoint: mean survival time, dose: 25.0 mg/kg/injection, schedule: Q01DX009 (ip), vehicle: saline with Tween-80.
[2] abbreviates: endpoint: mean survival time, dose: 50.0 mg/kg/injection, schedule: Q01DX009 (ip), vehicle: saline with Tween-80.
[3] abbreviates: endpoint: mean survival time, dose: 100.0 mg/kg/injection, schedule: Q01DX009 (ip), vehicle: saline with Tween-80.
The mark [4] stands for this setting: endpoint: mean survival time, dose: 200.0 mg/kg/injection, schedule: Q01DX009 (ip), vehicle: saline with Tween-80.
[5] abbreviates: endpoint: mean survival time, dose: 400.0 mg/kg/injection, schedule: Q01DX009 (ip), vehicle: saline with Tween-80.
[6] abbreviates: endpoint: mean survival time, dose: 1.56 mg/kg/injection, schedule: Q01DX009 (ip), vehicle: saline with Tween-80.
The mark [7] stands for this setting: endpoint: mean survival time, dose: 3.12 mg/kg/injection, schedule: Q01DX009 (ip), vehicle: saline with Tween-80.
[8] abbreviates: endpoint: mean survival time, dose: 6.25 mg/kg/injection, schedule: Q01DX009 (ip), vehicle: saline with Tween-80.
[9] abbreviates: endpoint: mean survival time, dose: 12.5 mg/kg/injection, schedule: Q01DX009 (ip), vehicle: saline with Tween-80.
[10] abbreviates: endpoint: mean survival time, dose: 100.0 mg/kg/injection, schedule: Q04DX002 (ip), vehicle: saline.
Where [11] appears, read: endpoint: mean survival time, dose: 200.0 mg/kg/injection, schedule: Q04DX002 (ip), vehicle: saline.
Setting [12] is: endpoint: mean survival time, dose: 400.0 mg/kg/injection, schedule: Q04DX002 (ip), vehicle: saline.

For `O=C(O)CC(=O)O.[NH-]C1CCCCC1[NH-].[Pt+2]` (stereo not given), the T/C reads like this: (endpoint: mean survival time, dose: 1.25 mg/kg/injection, schedule: Q01DX009 (ip), vehicle: saline sonified) 110 % of control; (endpoint: mean survival time, dose: 2.5 mg/kg/injection, schedule: Q01DX009 (ip), vehicle: saline sonified) 119 % of control; (endpoint: mean survival time, dose: 10.0 mg/kg/injection, schedule: Q01DX001 (ip), vehicle: suspension in saline) 124 % of control; (endpoint: mean survival time, dose: 10.0 mg/kg/injection, schedule: Q01DX009 (oral), vehicle: saline) 98 % of control; (endpoint: mean survival time, dose: 20.0 mg/kg/injection, schedule: Q01DX001 (oral), vehicle: saline) 98 % of control; (endpoint: mean survival time, dose: 20.0 mg/kg/injection, schedule: Q01DX009 (oral), vehicle: saline) 109 % of control. In addition, the T/C reads like this: (endpoint: mean survival time, dose: 40.0 mg/kg/injection, schedule: Q01DX001 (oral), vehicle: saline) 98 % of control; (endpoint: mean survival time, dose: 40.0 mg/kg/injection, schedule: Q01DX009 (oral), vehicle: saline) 100 % of control; (endpoint: mean survival time, dose: 80.0 mg/kg/injection, schedule: Q01DX001 (oral), vehicle: saline) 100 % of control; (endpoint: mean survival time, dose: 160.0 mg/kg/injection, schedule: Q01DX001 (oral), vehicle: saline) 100 % of control; (endpoint: mean survival time, dose: 320.0 mg/kg/injection, schedule: Q01DX001 (oral), vehicle: saline) 100 % of control; (endpoint: mean survival time, dose: 320.0 mg/kg/injection, schedule: Q01DX009 (oral), vehicle: saline) 120 % of control. In addition, for the setting “endpoint: median survival time, dose: 4.0 mg/kg/injection, schedule: Q01DX009 (ip), vehicle: dextrose”, the T/C was 110 % of control.

For the molecule `N#CC1C(=O)NC(O)(c2ccccc2)C1c1ccccc1` (stereo not given), the T/C is 105 % of control (endpoint: mean survival time, dose: 25.0 mg/kg/injection, schedule: Q04DX003 (ip), vehicle: saline with Tween-80); 105 % of control (endpoint: mean survival time, dose: 50.0 mg/kg/injection, schedule: Q04DX003 (ip), vehicle: saline with Tween-80); 97 % of control and 105 % of control (endpoint: mean survival time, dose: 100.0 mg/kg/injection, schedule: Q04DX003 (ip), vehicle: saline with Tween-80).

Take `CCCCCCCCC/C=C(/CC(=O)O)C(=O)O`: the T/C was 92 % of control under setting [1], 96 % of control under setting [2] and 102 % of control under setting [3].

In the case of `COc1cccc2c1CCC1C2CC=C2CC3(CCC21C)OCCO3` (stereo not given), the T/C reads like this: (endpoint: mean survival time, dose: 100.0 mg/kg/injection, schedule: Q04DX003 (sc), vehicle: steriod suspending solution) 97 % of control; (endpoint: mean survival time, dose: 200.0 mg/kg/injection, schedule: Q04DX003 (sc), vehicle: steriod suspending solution) 92 % of control; (endpoint: mean survival time, dose: 400.0 mg/kg/injection, schedule: Q04DX003 (sc), vehicle: steriod suspending solution) 94 % of control.

In the case of `CC(O)C(=O)NN` (stereo not given), the T/C runs as follows: under setting [3], 112 % of control; under setting [4], 116 % of control; under setting [5], 93 % of control.

With `N#CSCCOCCSC#N`, the T/C is, setting by setting: (endpoint: mean survival time, dose: 2.5 mg/kg/injection, schedule: Q04DX003 (ip), vehicle: saline with Tween-80) 100 % of control; (endpoint: mean survival time, dose: 5.0 mg/kg/injection, schedule: Q04DX003 (ip), vehicle: saline with Tween-80) 96 % of control.

Take `C=C1C(=O)C23[C@H](O)C1CC[C@H]2[C@]12COC3(O)[C@@H](O)[C@@H]1C(C)(C)CC[C@@H]2O`: the T/C is 97 % of control and 111 % of control under setting [6]; 102 % of control and 103 % of control under setting [7]; 93 % of control and 105 % of control and 107 % of control (endpoint: mean survival time, dose: 4.5 mg/kg/injection, schedule: Q01DX009 (ip), vehicle: Klucel (hydroxypropylcellulose) (HPC)); 96 % of control and 102 % of control under setting [8]; 95 % of control and 97 % of control (endpoint: mean survival time, dose: 9.0 mg/kg/injection, schedule: Q01DX009 (ip), vehicle: Klucel (hydroxypropylcellulose) (HPC)); 97 % of control and 105 % of control under setting [9]. Also, the T/C by setting is: (endpoint: mean survival time, dose: 18.0 mg/kg/injection, schedule: Q01DX009 (ip), vehicle: Klucel (hydroxypropylcellulose) (HPC)) 93 % of control and 101 % of control and 107 % of control; under setting [1], 102 % of control and 105 % of control; (endpoint: mean survival time, dose: 36.0 mg/kg/injection, schedule: Q01DX009 (ip), vehicle: Klucel (hydroxypropylcellulose) (HPC)) 90 % of control and 107 % of control.

In the case of `C1CC(N2CC2)CCC1N1CC1` (stereo not given), the T/C (endpoint: mean survival time, dose: 6.0 mg/kg/injection, schedule: Q04DX003 (ip), vehicle: saline) is 169 % of control; the T/C (endpoint: mean survival time, dose: 9.0 mg/kg/injection, schedule: Q04DX003 (ip), vehicle: saline) is 124 % of control; the T/C (endpoint: mean survival time, dose: 13.0 mg/kg/injection, schedule: Q04DX003 (ip), vehicle: saline) is 110 % of control; the T/C (endpoint: mean survival time, dose: 20.0 mg/kg/injection, schedule: Q04DX003 (ip), vehicle: saline) is 86 % of control.

Regarding `CS(=O)(=O)c1nc(Cl)c(Cl)c(C#N)c1Cl`, the T/C was 100 % of control (endpoint: mean survival time, dose: 5.0 mg/kg/injection, schedule: Q01DX009 (ip), vehicle: saline with Tween-80); 95 % of control (endpoint: mean survival time, dose: 10.0 mg/kg/injection, schedule: Q01DX009 (ip), vehicle: saline with Tween-80); 95 % of control (endpoint: mean survival time, dose: 20.0 mg/kg/injection, schedule: Q01DX009 (ip), vehicle: saline with Tween-80).

Regarding `CCOC(=O)c1ccc(NS(=O)c2ccccc2)cc1` (stereo not given), the T/C is, setting by setting: (endpoint: mean survival time, dose: 100.0 mg/kg/injection, schedule: Q01DX001 (ip), vehicle: saline) 95 % of control; (endpoint: mean survival time, dose: 100.0 mg/kg/injection, schedule: Q04DX003 (ip), vehicle: saline) 109 % of control; (endpoint: mean survival time, dose: 200.0 mg/kg/injection, schedule: Q01DX001 (ip), vehicle: saline) 95 % of control; (endpoint: mean survival time, dose: 200.0 mg/kg/injection, schedule: Q04DX003 (ip), vehicle: saline) 108 % of control; (endpoint: mean survival time, dose: 400.0 mg/kg/injection, schedule: Q01DX001 (ip), vehicle: saline) 94 % of control; (endpoint: mean survival time, dose: 400.0 mg/kg/injection, schedule: Q04DX003 (ip), vehicle: saline) 103 % of control.

On to `CCOC(=O)C(OCC)c1ccccc1` (stereo not given), for which the T/C runs as follows: under setting [3], 105 % of control; under setting [4], 101 % of control; under setting [5], 95 % of control.

Take `Cc1c2cc(Cl)c3ccccc3c2c[n+]2ccccc12`: the T/C is 102 % of control and 106 % of control under setting [7]; 100 % of control and 109 % of control under setting [8]; 118 % of control and 102 % of control under setting [9]; 114 % of control and 104 % of control under setting [1]; 114 % of control and 110 % of control under setting [2]; 124 % of control and 102 % of control under setting [3].

Take `Cc1ccc(C(=O)NCCCOc2ccc(N3C(N)=NC(N)=NC3(C)C)cc2Cl)cc1S(=O)(=O)F`: the T/C is, setting by setting: under setting [9], 106 % of control; under setting [1], 103 % of control; under setting [2], 103 % of control; under setting [3], 106 % of control.

On to `O=[N+]([O-])c1ccccc1N=C(c1ccccc1)N(O)c1ccccc1`, for which the T/C is 101 % of control (endpoint: mean survival time, dose: 9.4 mg/kg/injection, schedule: Q01DX009 (ip), vehicle: saline with Tween-80); 98 % of control (endpoint: mean survival time, dose: 9.4 mg/kg/injection, schedule: Q04DX003 (ip), vehicle: saline with Tween-80); 101 % of control (endpoint: mean survival time, dose: 18.8 mg/kg/injection, schedule: Q01DX001 (ip), vehicle: saline); 104 % of control (endpoint: mean survival time, dose: 18.8 mg/kg/injection, schedule: Q01DX009 (ip), vehicle: saline with Tween-80); 100 % of control (endpoint: mean survival time, dose: 18.8 mg/kg/injection, schedule: Q04DX003 (ip), vehicle: saline with Tween-80); 102 % of control (endpoint: mean survival time, dose: 37.5 mg/kg/injection, schedule: Q01DX001 (ip), vehicle: saline).

As to `Nc1nc2c(ncn2C2OC(COC(=O)Oc3ccccc3)C(O)C2O)c(=O)[nH]1` (stereo not given), the T/C reads like this: (endpoint: mean survival time, dose: 50.0 mg/kg/injection, schedule: Q01DX009 (ip), vehicle: Klucel (hydroxypropylcellulose) (HPC)) 107 % of control; (endpoint: mean survival time, dose: 100.0 mg/kg/injection, schedule: Q01DX009 (ip), vehicle: Klucel (hydroxypropylcellulose) (HPC)) 96 % of control; (endpoint: mean survival time, dose: 200.0 mg/kg/injection, schedule: Q01DX009 (ip), vehicle: Klucel (hydroxypropylcellulose) (HPC)) 92 % of control.

In the case of `CCOC(=O)NCCB(O)O`, the T/C under setting [10] was 100 % of control, the T/C under setting [11] was 88 % of control and the T/C under setting [12] is 95 % of control.

On to `NCC1OC(OC2C(CO)OC(OC3C(O)C(N)CC(N)C3OC3OC(CO)C(O)CC3N)C2O)C(N)C(O)C1OC1OC(CO)C(O)C(O)C1O` (stereo not given), for which the T/C by setting is: under setting [10], 98 % of control; under setting [11], 92 % of control; under setting [12], 95 % of control.

As for `CCCCN1C(=O)C=CC1=O`, the T/C reads like this: (endpoint: mean survival time, dose: 0.78 mg/kg/injection, schedule: Q01DX009 (ip), vehicle: saline with Tween-80) 94 % of control; under setting [6], 105 % of control; under setting [7], 91 % of control.
